Experimental data as given in PubChem BioAssay (NCI).
Where “and” joins values, the source holds several entries; their conditions need not be identical. Equal entries are not always repeated.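 Cultured in 96-well plates, cells were exposed to test compound for 48 hours across five concentrations. At the GI50, growth is halved. TGI: total growth inhibition.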

What was measured:
Experiment in all cases: NCI-60 cell line screen, 48 h
U251 CNS = test system: U251 CNS
CAKI-1 renal = test system: CAKI-1 renal
OVCAR-5 ovarian = test system: OVCAR-5 ovarian
RXF 393 renal = test system: RXF 393 renal
SF-295 CNS = test system: SF-295 CNS
TK-10 renal = test system: TK-10 renal
UACC-62 melanoma = test system: UACC-62 melanoma
OVCAR-8 ovarian = test system: OVCAR-8 ovarian
UO-31 renal = test system: UO-31 renal
MDA-MB-435 = test system: MDA-MB-435
NCI-H23 lung = test system: NCI-H23 lung
OVCAR-4 ovarian = test system: OVCAR-4 ovarian
SNB-19 CNS = test system: SNB-19 CNS
SNB-75 CNS = test system: SNB-75 CNS
SK-MEL-2 melanoma = test system: SK-MEL-2 melanoma
M14 melanoma = test system: M14 melanoma
SK-OV-3 ovarian = test system: SK-OV-3 ovarian
HCC-2998 colon = test system: HCC-2998 colon
PC-3 prostate = test system: PC-3 prostate
MOLT-4 leukemia = test system: MOLT-4 leukemia
T-47D breast = test system: T-47D breast
HT29 colon = test system: HT29 colon
MDA-MB-231 breast = test system: MDA-MB-231 breast
MCF7 breast = test system: MCF7 breast
786-0 renal = test system: 786-0 renal
IGROV1 ovarian = test system: IGROV1 ovarian
MDA-N = test system: MDA-N
COLO 205 colon = test system: COLO 205 colon
OVCAR-3 ovarian = test system: OVCAR-3 ovarian
RPMI-8226 leukemia = test system: RPMI-8226 leukemia
DU-145 prostate = test system: DU-145 prostate
EKVX NSCLC = test system: EKVX NSCLC
SW-620 colon = test system: SW-620 colon
HOP-92 NSCLC = test system: HOP-92 NSCLC
MALME-3M melanoma = test system: MALME-3M melanoma
CCRF-CEM leukemia = test system: CCRF-CEM leukemia
SK-MEL-5 melanoma = test system: SK-MEL-5 melanoma
SK-MEL-28 melanoma = test system: SK-MEL-28 melanoma
LOX IMVI melanoma = test system: LOX IMVI melanoma
NCI-H522 lung = test system: NCI-H522 lung
NCI/ADR-RES ovarian = test system: NCI/ADR-RES ovarian
NCI-H226 lung = test system: NCI-H226 lung
HOP-62 NSCLC = test system: HOP-62 NSCLC
SF-539 CNS = test system: SF-539 CNS
NCI-H460 lung = test system: NCI-H460 lung
SN12C renal = test system: SN12C renal
UACC-257 melanoma = test system: UACC-257 melanoma
K-562 leukemia = test system: K-562 leukemia
ACHN renal = test system: ACHN renal
HCT-116 colon = test system: HCT-116 colon
BT-549 breast = test system: BT-549 breast
KM12 colon = test system: KM12 colon
HCT-15 colon = test system: HCT-15 colon
HS 578T breast = test system: HS 578T breast
A498 renal = test system: A498 renal
HL-60(TB) leukemia = test system: HL-60(TB) leukemia
A549 NSCLC = test system: A549 NSCLC
SF-268 CNS = test system: SF-268 CNS

## COCCOC1=CC(=O)c2c(O)ccc(O)c2C1=O
U251 CNS
  TGI: 3550 nM and 3540 nM
CAKI-1 renal
  GI50: 1680 nM
  TGI: 4370 nM and 3140 nM
OVCAR-5 ovarian
  GI50: 1920 nM
  TGI: 2960 nM and 3460 nM
RXF 393 renal
  GI50: 1500 nM
  TGI: 3630 nM and 2940 nM
SF-295 CNS
  GI50: 2060 nM
  TGI: 3090 nM and 3930 nM
TK-10 renal
  GI50: 2900 nM
  TGI: 3570 nM and 5780 nM
UACC-62 melanoma
  GI50: 1620 nM
  TGI: 3740 nM and 3580 nM
OVCAR-8 ovarian
  TGI: 3490 nM
UO-31 renal
  GI50: 1630 nM
  TGI: 3830 nM and 3350 nM
MDA-MB-435
  TGI: 324 nM and 323 nM
NCI-H23 lung
  GI50: 1440 nM
  TGI: 2430 nM and 3340 nM
OVCAR-4 ovarian
  GI50: 1610 nM
  TGI: 3300 nM and 2970 nM
SNB-19 CNS
  TGI: 3820 nM
SNB-75 CNS
  GI50: 1690 nM
  TGI: 3430 nM and 3090 nM
SK-MEL-2 melanoma
  GI50: 1860 nM
  TGI: 2580 nM and 3820 nM
M14 melanoma
  GI50: 818 nM
  TGI: 353 nM and 2160 nM
SK-OV-3 ovarian
  GI50: 17900 nM
  TGI: 31700 nM
HCC-2998 colon
  GI50: 1700 nM
  TGI: 4030 nM and 3120 nM
PC-3 prostate
  GI50: 2670 nM
  TGI: 4770 nM and 8280 nM
MOLT-4 leukemia
  GI50: 1440 nM
  TGI: 8030 nM and 3530 nM
T-47D breast
  TGI: 4830 nM
HT29 colon
  GI50: 995 nM
  TGI: 2050 nM and 2640 nM
MDA-MB-231 breast
  GI50: 2450 nM
  TGI: 3230 nM and 6140 nM
MCF7 breast
  GI50: 510 nM
  TGI: 933 nM and 1920 nM
786-0 renal
  GI50: 1840 nM
  TGI: 3060 nM and 3610 nM
IGROV1 ovarian
  TGI: 3110 nM and 2970 nM
MDA-N
  GI50: 359 nM
  TGI: 341 nM and 1130 nM
COLO 205 colon
  GI50: 320 nM
  TGI: 661 nM and 1200 nM
OVCAR-3 ovarian
  GI50: 319 nM
  TGI: 1860 nM and 1130 nM
RPMI-8226 leukemia
  GI50: 2030 nM
  TGI: 8860 nM and 5060 nM
DU-145 prostate
  GI50: 500 nM
  TGI: 2120 nM and 1620 nM
EKVX NSCLC
  TGI: 3880 nM and 3930 nM
SW-620 colon
  GI50: 1320 nM
  TGI: 6550 nM and 3180 nM
HOP-92 NSCLC
  GI50: 1540 nM
  TGI: 3700 nM and 3590 nM
MALME-3M melanoma
  GI50: 808 nM
  TGI: 328 nM and 2070 nM
CCRF-CEM leukemia
  GI50: 1920 nM
  TGI: 7010 nM and 4310 nM
SK-MEL-5 melanoma
  TGI: 300 nM and 295 nM
SK-MEL-28 melanoma
  GI50: 1750 nM
  TGI: 2900 nM and 3370 nM
LOX IMVI melanoma
  GI50: 914 nM
  TGI: 2340 nM and 2130 nM
NCI-H522 lung
  GI50: 1690 nM
  TGI: 4440 nM and 3370 nM
NCI/ADR-RES ovarian
  TGI: 7410 nM and 5630 nM
NCI-H226 lung
  TGI: 4010 nM and 4160 nM
HOP-62 NSCLC
  GI50: 1900 nM
  TGI: 1800 nM and 3310 nM
SF-539 CNS
  TGI: 3120 nM and 3160 nM
NCI-H460 lung
  GI50: 2010 nM
  TGI: 3110 nM and 4200 nM
SN12C renal
  GI50: 1460 nM
  TGI: 3030 nM and 2830 nM
UACC-257 melanoma
  GI50: 626 nM
  TGI: 409 nM and 2060 nM
K-562 leukemia
  GI50: 1400 nM
  TGI: 5770 nM and 3570 nM
ACHN renal
  GI50: 1630 nM
  TGI: 3410 nM and 3140 nM
HCT-116 colon
  GI50: 1290 nM
  TGI: 1000 nM and 2640 nM
BT-549 breast
  TGI: 3170 nM
KM12 colon
  GI50: 3050 nM
  TGI: 3540 nM and 11700 nM
HCT-15 colon
  GI50: 1600 nM
  TGI: 2620 nM and 3380 nM
HS 578T breast
  TGI: 6880 nM
A498 renal
  GI50: 2160 nM
  TGI: 3180 nM and 3920 nM
HL-60(TB) leukemia
  GI50: 305 nM
  TGI: 2260 nM and 1040 nM
A549 NSCLC
  GI50: 1740 nM
  TGI: 4150 nM and 3780 nM
SF-268 CNS
  GI50: 3290 nM
  TGI: 3540 nM and 10900 nM
